In series [1] the test system is LPS-induced IL-8 release in d-U937 cells. Description: LPS-induced IL-8 release in d-U937 cells. It counts as cell-based. As to conditions: Homo sapiens, dU937, read-out: LPS Induced Release of Cytokine in d-937 Cells IL-8 IC50. A digest of the protocol: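 First, U937 monocytes undergo PMA treatment (100 ng/mL) for 48 to 72 hr to become macrophage-type. Next, compound at final concentrations is added for 2 hr, followed by LPS at 0.1 μg/mL for 4 hr. Finally, cytokines in the supernatant are quantified by ELISA against vehicle-treated cells.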

Another series addresses p38 MAPKα (Homo sapiens (Human), UniProt Q16539). Put plainly: p38 MAPKα enzyme inhibition (FRET, Z-LYTE). It counts as biochemical.
Series [2] deals with Poly I:C-induced ICAM-1 expression in BEAS2B cells. Description: Poly I:C-induced ICAM-1 expression in BEAS2B cells. It counts as cell-based. The conditions noted are these: Homo sapiens, BEAS-2B, read-out: Poly IC induced ICAM1 in BEAS2B IC50. A digest of the protocol: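 BEAS2B human bronchial epithelial cells pre-incubated with compound for 2 hr, then transfected with 1 μg/mL poly I:C plus Oligofectamine. At 18 hr, surface ICAM-1 measured by cell-based ELISA (HRP, OD450–655). Signal corrected for cell number by crystal violet OD595.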

The next series addresses Syk (Homo sapiens (Human), UniProt P43405). Description: Syk enzyme inhibition (FRET, Z-LYTE). In kind it is biochemical. A digest of the protocol: (§1)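 Z-LYTE FRET kinase assay: enzyme (3000 or 2000 ng/mL stock, respectively) preincubated 2 h at RT with compound (4–0.004 μg/mL stocks), then FRET peptide plus ATP (800 μM stock for c-Src, 60 μM for Syk) added for 1 h. Protease development 1 h; phosphorylation from coumarin/fluorescein emission ratio.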

A further series deals with d-U937 cells. Put plainly: Cell viability: MTT assay. It counts as cell-based, human. The conditions noted are these: 1 μg/mL. In outline:
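Differentiated U937 cells were exposed to compound at 1 or 10 μg/mL either 4 h in 5% FCS RPMI1640 or 24 h in 10% FCS RPMI1640, then given MTT for 1 h, DMSO-solubilised and read at 550 nm. Percent viability loss versus 0.5% DMSO vehicle; apparent gains appear negative.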

A further series concerns the target GSK3α (Homo sapiens (Human), UniProt P49840). Put plainly: GSK 3α enzyme inhibition (FRET, Z-LYTE). It counts as biochemical. In outline:
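GSK3α (500 ng/mL stock) was preincubated 2 hr at RT with compound (4 to 0.004 μg/mL stocks), then FRET peptide (8 μM stock) and ATP (40 μM stock) added for 1 hr. Protease development for 1 hr cleaved unphosphorylated peptide; coumarin/fluorescein emission ratio reported phosphorylation.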

Series [3] deals with LPS-induced TNFα release in d-U937 cells. Description: LPS-induced TNFα release in d-U937 cells. In kind it is cell-based. The conditions noted are these: Homo sapiens, dU937, relative to 10 μg/mL BIRB796, read-out: LPS Induced Release of Cytokine in d-937 Cells TNFα REC50. A digest of the protocol: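 Read-out: TNFα and IL-8 released into supernatant, sandwich ELISA, expressed as inhibition versus vehicle at each dose and fitted to give REC50. Cells were PMA-differentiated U937 (100 ng/mL, 48–72 hr), compound-exposed 2 hr before a 4 hr LPS stimulus (0.1 μg/mL).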

A further series has as its target cSrc (Homo sapiens (Human), UniProt P12931). Description: c-Src enzyme inhibition (FRET, Z-LYTE). In kind it is biochemical. A digest of the protocol: as §1

In general, IC50 refers to the midpoint of a concentration-inhibition curve.

Chain of cSrc (P12931 whole entry, looked up): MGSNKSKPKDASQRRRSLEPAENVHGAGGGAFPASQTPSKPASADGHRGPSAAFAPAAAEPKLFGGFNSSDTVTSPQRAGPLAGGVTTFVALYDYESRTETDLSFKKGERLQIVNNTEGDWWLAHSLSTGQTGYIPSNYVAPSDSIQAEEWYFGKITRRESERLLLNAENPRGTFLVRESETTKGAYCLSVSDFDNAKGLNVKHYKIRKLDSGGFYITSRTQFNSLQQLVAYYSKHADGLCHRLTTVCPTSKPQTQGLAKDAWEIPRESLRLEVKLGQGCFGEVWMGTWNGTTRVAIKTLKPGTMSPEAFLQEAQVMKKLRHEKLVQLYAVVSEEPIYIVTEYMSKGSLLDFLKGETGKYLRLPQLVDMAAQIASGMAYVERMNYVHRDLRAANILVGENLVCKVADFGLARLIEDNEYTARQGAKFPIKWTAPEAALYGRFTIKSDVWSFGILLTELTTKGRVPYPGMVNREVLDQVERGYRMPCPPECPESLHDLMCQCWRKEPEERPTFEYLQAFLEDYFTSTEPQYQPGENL
Chain of p38 MAPKα (Q16539 whole entry): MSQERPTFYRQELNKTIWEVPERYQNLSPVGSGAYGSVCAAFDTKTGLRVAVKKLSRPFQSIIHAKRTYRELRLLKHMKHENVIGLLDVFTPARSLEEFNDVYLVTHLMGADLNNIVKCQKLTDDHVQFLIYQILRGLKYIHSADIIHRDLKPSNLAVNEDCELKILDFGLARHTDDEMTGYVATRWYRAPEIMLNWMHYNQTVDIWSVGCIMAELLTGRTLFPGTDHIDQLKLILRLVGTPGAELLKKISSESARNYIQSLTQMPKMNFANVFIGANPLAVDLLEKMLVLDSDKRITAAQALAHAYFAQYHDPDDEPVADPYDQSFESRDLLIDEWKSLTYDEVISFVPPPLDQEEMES
Chain of GSK3α (P49840 whole entry): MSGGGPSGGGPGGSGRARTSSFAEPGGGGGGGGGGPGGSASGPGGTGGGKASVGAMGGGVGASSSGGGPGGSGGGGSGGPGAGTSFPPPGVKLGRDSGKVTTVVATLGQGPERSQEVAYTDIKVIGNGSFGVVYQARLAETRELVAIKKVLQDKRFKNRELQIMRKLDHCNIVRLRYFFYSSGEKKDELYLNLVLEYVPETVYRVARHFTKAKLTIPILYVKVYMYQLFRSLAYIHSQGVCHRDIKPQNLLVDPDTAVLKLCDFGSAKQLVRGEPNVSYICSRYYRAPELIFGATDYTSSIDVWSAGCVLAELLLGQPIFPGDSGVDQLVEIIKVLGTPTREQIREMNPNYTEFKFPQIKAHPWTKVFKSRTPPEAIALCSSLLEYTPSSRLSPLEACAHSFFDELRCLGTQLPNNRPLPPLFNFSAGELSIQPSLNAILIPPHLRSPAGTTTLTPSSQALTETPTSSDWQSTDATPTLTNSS

In the case of `COc1ccc(-n2nc(C(C)(C)C)cc2NC(=O)Nc2ccc(Oc3ccnc(Nc4ccc5[nH]ccc5c4)n3)c3ccccc23)cc1` [Example 38, 1-(4-((2-((1H-indol-5-yl)amino)pyrimidin-4-yl)oxy)naphthalen-1-yl)-3-(3-(tert-butyl)-1-(4-methoxyphenyl)-1H-pyrazol-5-yl)urea], the 50% inhibitory concentration (IC50) is 1.1 nM in series [1]; 184 nM against p38 MAPKα; 2.5 nM in series [2]; 26 nM against Syk; more than 1560 nM against GSK3α; 10 nM at cSrc. Moreover, in the series with d-U937 cells, the “MTT Assay Cell viability at time point in d-U937 cells 4 h” value was “−ve (−ve and +ve indicate that the value is below and above respectively, the no significant effect threshold, defined as 30% inhibition at 1 μg/mL at the time point indicated.)”. Besides, the “MTT Assay Cell viability at time point in d-U937 cells 24 h” value with d-U937 cells is “−ve (−ve and +ve indicate that the value is below and above respectively, the no significant effect threshold, defined as 30% inhibition at 1 μg/mL at the time point indicated.)”. Moreover, in series [3], the EC50 came out at 1.8 nM.

Turning to `CC(C)(C)c1cc(NC(=O)Nc2ccc(Oc3ccnc(Nc4ccc5c(c4)NC(=O)C5)n3)c3ccccc23)n(-c2cccc(OCCN3CCOCC3)c2)n1` [Example 50, 1-(3-(tert-butyl)-1-(3-(2-morpholinoethoxy)phenyl)-1H-pyrazol-5-yl)-3-(4-((2-((2-oxoindolin-6-yl)amino)pyrimidin-4-yl)oxy)naphthalen-1-yl)urea], the half-inhibitory concentration (IC50) in series [1] was 34 nM; on p38 MAPKα, 31 nM; in series [2], 2.7 nM; on Syk, 2 nM; on GSK3α, 1170 nM; against cSrc, less than 1 nM. The “MTT Assay Cell viability at time point in d-U937 cells 4 h” value with d-U937 cells was “−ve (−ve and +ve indicate that the value is below and above respectively, the no significant effect threshold, defined as 30% inhibition at 1 μg/mL at the time point indicated.)”. Besides, the “MTT Assay Cell viability at time point in d-U937 cells 24 h” value in the series with d-U937 cells was “−ve (−ve and +ve indicate that the value is below and above respectively, the no significant effect threshold, defined as 30% inhibition at 1 μg/mL at the time point indicated.)”. Moreover, the EC50 in series [3] is 16.4 nM.

Regarding `CC(C)(C)c1cc(NC(=O)Nc2ccc(Oc3ccnc(Nc4ccc5[nH]ccc5c4)n3)c3ccccc23)n(-c2cccc(CN3CCCC3=O)c2)n1` [Example 48, 1-(4-((2-((1H-indol-5-yl)amino)pyrimidin-4-yl)oxy)naphthalen-1-yl)-3-(3-(tert-butyl)-1-(3-((2-oxopyrrolidin-1-yl)methyl)phenyl)-1H-pyrazol-5-yl)urea], the 50% inhibitory concentration (IC50) in series [1] is 16.6 nM; at p38 MAPKα, 70 nM; in series [2], 6.9 nM; against Syk, 18 nM; against GSK3α, more than 1420 nM; against cSrc, 4 nM. Besides, the “MTT Assay Cell viability at time point in d-U937 cells 4 h” value with d-U937 cells is “−ve (−ve and +ve indicate that the value is below and above respectively, the no significant effect threshold, defined as 30% inhibition at 1 μg/mL at the time point indicated.)”. The “MTT Assay Cell viability at time point in d-U937 cells 24 h” value in the series on d-U937 cells was “−ve (−ve and +ve indicate that the value is below and above respectively, the no significant effect threshold, defined as 30% inhibition at 1 μg/mL at the time point indicated.)”. Also, the EC50 in series [3] stood at 5.3 nM.
